The values that follow are results of earlier work, collected in US4196122A, “Analgesic polypeptide” (American Home Products Corporation, priority 1977, dated 1980).

For series [1], the system named is opiate receptor. The settings on record: brain homogenates.
The test system of series [2] is rats. Particulars: injection in the brain ventricle in rats; fully reversible by naloxone.

As to “H-Tyr-Gly-Gly-Phe-Met-OH [methionine-enkephalin]”, in series [1], the “inhibition of stereospecific receptor binding of 3H-naloxone” value is listed as “inhibit the stereospecific receptor binding”. Further, the analgesia entry in series [2] is on record as “induce a profound analgesia”.
For the substance “H-Tyr-Gly-Gly-Phe-Leu-OH [leucine-enkephalin]”, in series [1], the “inhibition of stereospecific receptor binding of 3H-naloxone” value is “inhibit the stereospecific receptor binding”. Moreover, the analgesia entry in series [2] is “induce a profound analgesia”.
